According to PMC6915887, “Inhibition of human carboxylesterases by ginsenosides: structure–activity relationships and inhibitory mechanism” (Chinese Medicine, 2019):
Where two headings read alike, the source gives them in different places.

Legend:
hCES1A = molecular target: T1, hCES1A (Homo sapiens, UniProt P23141); experiment: hCES1A inhibition assay (DME hydrolysis in HLM); assay type: biochemical; details: for inhibition of hCES1A-mediated DME hydrolysis (residual activity screen): HLM, ginsenoside 100 μM, result in words;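 on all read-outs here: Read-out is D-luciferin luminescence formed from DME (3 µM) after 10 min at 37 °C in pH 6.5 PBS, HLM 1 µg/mL, inhibitor preincubated 3 min, oleanic acid as positive control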
T1 construct: tissue Bioreclamation IVT lot no; X008067; host or cells: pooled human liver microsomes (50 donors)
T1 sequence (P23141 18-567): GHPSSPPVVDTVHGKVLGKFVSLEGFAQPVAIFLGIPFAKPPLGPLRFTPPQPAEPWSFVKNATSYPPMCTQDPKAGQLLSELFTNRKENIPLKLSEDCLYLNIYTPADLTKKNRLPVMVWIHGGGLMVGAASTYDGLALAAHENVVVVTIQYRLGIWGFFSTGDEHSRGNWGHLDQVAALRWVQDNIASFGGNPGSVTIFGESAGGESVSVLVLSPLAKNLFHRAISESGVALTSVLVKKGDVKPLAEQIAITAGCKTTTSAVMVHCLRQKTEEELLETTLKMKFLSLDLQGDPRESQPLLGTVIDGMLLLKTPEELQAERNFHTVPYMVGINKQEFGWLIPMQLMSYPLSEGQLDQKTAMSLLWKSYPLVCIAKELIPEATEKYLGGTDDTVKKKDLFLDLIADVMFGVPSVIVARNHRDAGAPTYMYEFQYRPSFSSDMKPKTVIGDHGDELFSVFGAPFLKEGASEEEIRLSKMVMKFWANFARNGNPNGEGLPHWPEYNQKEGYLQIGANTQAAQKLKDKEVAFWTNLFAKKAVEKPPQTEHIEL

hCES2A = molecular target: T2, hCES2A (Homo sapiens, UniProt O00748); experiment: hCES2A inhibition assay (FD hydrolysis in HLM); assay type: biochemical; details: for Specificity (hCES1A/hCES2A): ratio of IC50 values in HLM; for inhibition of hCES2A-mediated FD hydrolysis (residual activity screen): HLM, ginsenoside 100 μM, result in words;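 on all read-outs here: HLM at 1 µg/mL in 0.1 M PBS pH 7.4, kinetic read at 37 °C every 30 s over 30 min, triplicate runs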
T2 construct: tissue Bioreclamation IVT lot no; X008067; host or cells: pooled human liver microsomes (50 donors)
T2 sequence (O00748 27-559): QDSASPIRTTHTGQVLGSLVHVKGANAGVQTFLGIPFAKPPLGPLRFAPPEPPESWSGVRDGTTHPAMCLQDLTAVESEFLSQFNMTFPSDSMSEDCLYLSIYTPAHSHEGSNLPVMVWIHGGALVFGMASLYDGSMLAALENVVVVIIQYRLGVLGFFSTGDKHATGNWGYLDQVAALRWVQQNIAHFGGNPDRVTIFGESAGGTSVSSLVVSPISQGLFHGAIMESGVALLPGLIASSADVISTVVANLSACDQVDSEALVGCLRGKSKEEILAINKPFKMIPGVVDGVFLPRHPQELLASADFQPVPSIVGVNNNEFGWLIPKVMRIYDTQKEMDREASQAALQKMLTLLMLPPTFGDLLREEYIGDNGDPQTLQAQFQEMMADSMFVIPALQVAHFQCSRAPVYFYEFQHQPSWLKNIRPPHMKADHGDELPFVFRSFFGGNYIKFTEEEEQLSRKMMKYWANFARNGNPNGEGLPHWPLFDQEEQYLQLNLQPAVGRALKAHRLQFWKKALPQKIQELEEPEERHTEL

[1] = HLM as enzyme source, DME hydrolysis as probe reaction, read-out: IC50 (μM) hCES1A
[2] = HLM as enzyme source, FD hydrolysis as probe reaction, read-out: IC50 (μM) hCES2A

Row | SMILES | IC50 (hCES1A; [1]) | Specificity (hCES1A/hCES2A) (hCES2A) | inhibition of hCES2A-mediated FD hydrolysis (residual activity screen) (hCES2A) | IC50 (hCES2A; [2]) | inhibition of hCES1A-mediated DME hydrolysis (residual activity screen) (hCES1A) | further results
1 | CC(C)=CCC[C@](C)(O[C@@H]1O[C@H](CO)[C@@H](O)[C@H](O)[C@H]1O)[C@H]1CC[C@]2(C)[C@@H]1[C@H](O)C[C@@H]1[C@@]3(C)CC[C@H](O)C(C)(C)[C@@H]3CC[C@]12C [C-K, ginsenoside C-K] | > 100 µM | – | – | – | – | –
2 | CC(C)=CCC[C@](C)(O[C@@H]1O[C@H](CO)[C@@H](O)[C@H](O)[C@H]1O)[C@H]1CC[C@]2(C)[C@@H]1[C@H](O)C[C@@H]1[C@@]3(C)CC[C@H](O)C(C)(C)[C@@H]3[C@@H](O)C[C@]12C [F1, ginsenoside F1] | > 100 µM | > 2.70 | – | – | – | –
3 | CC(C)=CCC[C@](C)(O[C@@H]1O[C@H](CO)[C@@H](O)[C@H](O)[C@H]1O)[C@H]1CC[C@]2(C)[C@@H]1[C@H](O)C[C@@H]1[C@@]3(C)CC[C@H](O[C@@H]4O[C@H](CO)[C@@H](O)[C@H](O)[C@H]4O)C(C)(C)[C@@H]3CC[C@]12C [F2] | > 100 µM | – | – | – | – | –
4 | CC(C)=CC/C=C(/C)C1CC[C@]2(C)C1[C@H](O)CC1[C@@]3(C)CC[C@H](O)C(C)(C)C3[C@@H](O[C@@H]3O[C@H](CO)[C@@H](O)[C@H](O)[C@H]3O[C@@H]3O[C@@H](C)[C@H](O)[C@@H](O)[C@H]3O)C[C@]12C (stereo partly shown) [F4] | > 100 µM | > 2.22 | – | – | – | –
5 | CC1(C)CCC[C@](C)([C@H]2CC[C@]3(C)[C@@H]2[C@H](O)C[C@@H]2[C@@]4(C)CC[C@H](O)C(C)(C)[C@@H]4CC[C@]23C)O1 [Panaxadiol, panaxadiol] | 6.95 ± 1.29 µM | 1.84 | strong or moderate inhibition | – | – | –
6 | CC1(C)CCC[C@](C)([C@H]2CC[C@]3(C)[C@@H]2[C@H](O)C[C@@H]2[C@@]4(C)CC[C@H](O)C(C)(C)[C@@H]4[C@@H](O)C[C@]23C)O1 [Panaxatriol, panaxatriol] | 34.9 ± 6.16 µM | – | – | – | – | –
7 | CC(C)=CCC[C@](C)(O[C@@H]1O[C@H](CO)[C@@H](O)[C@H](O)[C@H]1O)C1CC[C@]2(C)C1[C@H](O)CC1[C@@]3(C)CC[C@H](O)C(C)(C)C3[C@@H](O[C@@H]3O[C@H](CO)[C@@H](O)[C@H](O)[C@H]3O[C@@H]3OC[C@@H](O)[C@H](O)[C@H]3O)C[C@]12C (stereo partly shown) [R1, ginsenoside R1] | > 100 µM | – | – | > 100 µM | – | –
8 | CC(C)=CCC[C@](C)(O[C@@H]1O[C@H](CO[C@@H]2O[C@H](CO)[C@@H](O)[C@H](O)[C@H]2O)[C@@H](O)[C@H](O)[C@H]1O)[C@H]1CC[C@]2(C)[C@@H]1[C@H](O)C[C@@H]1[C@@]3(C)CC[C@H](O[C@@H]4O[C@H](CO)[C@@H](O)[C@H](O)[C@H]4O[C@@H]4O[C@H](CO)[C@@H](O)[C@H](O)[C@H]4O)C(C)(C)[C@@H]3CC[C@]12C [Rb1] | > 100 µM | – | hardly inhibit | > 100 µM | hardly inhibit | –
9 | CC(C)=CCC[C@](C)(O[C@@H]1O[C@H](CO[C@@H]2OC[C@H](O)[C@H](O)[C@H]2O)[C@@H](O)[C@H](O)[C@H]1O)[C@H]1CC[C@]2(C)[C@@H]1[C@H](O)C[C@@H]1[C@@]3(C)CC[C@H](O[C@@H]4O[C@H](CO)[C@@H](O)[C@H](O)[C@H]4O[C@@H]4O[C@H](CO)[C@@H](O)[C@H](O)[C@H]4O)C(C)(C)[C@@H]3CC[C@]12C [Rb2] | > 100 µM | – | hardly inhibit | > 100 µM | hardly inhibit | –
10 | CC(C)=CCC[C@](C)(O[C@@H]1O[C@H](CO[C@@H]2OC[C@@H](O)[C@H](O)[C@H]2O)[C@@H](O)[C@H](O)[C@H]1O)[C@H]1CC[C@]2(C)[C@@H]1[C@H](O)C[C@@H]1[C@@]3(C)CC[C@H](O[C@@H]4O[C@H](CO)[C@@H](O)[C@H](O)[C@H]4O[C@@H]4O[C@H](CO)[C@@H](O)[C@H](O)[C@H]4O)C(C)(C)[C@@H]3CC[C@]12C [Rb3] | > 100 µM | – | hardly inhibit | > 100 µM | hardly inhibit | –
11 | CC(C)=CCC[C@](C)(O[C@@H]1O[C@H](CO[C@@H]2O[C@@H](CO)[C@H](O)[C@H]2O)[C@@H](O)[C@H](O)[C@H]1O)[C@H]1CC[C@]2(C)[C@@H]1[C@H](O)C[C@@H]1[C@@]3(C)CC[C@H](O[C@@H]4O[C@H](CO)[C@@H](O)[C@H](O)[C@H]4O[C@@H]4O[C@H](CO)[C@@H](O)[C@H](O)[C@H]4O)C(C)(C)[C@@H]3CC[C@]12C [Rc] | > 100 µM | >1.22 | – | – | – | –
12 | CC(C)=CCC[C@](C)(O[C@@H]1O[C@H](CO)[C@@H](O)[C@H](O)[C@H]1O)[C@H]1CC[C@]2(C)[C@@H]1[C@H](O)C[C@@H]1[C@@]3(C)CC[C@H](O[C@@H]4O[C@H](CO)[C@@H](O)[C@H](O)[C@H]4O[C@@H]4O[C@H](CO)[C@@H](O)[C@H](O)[C@H]4O)C(C)(C)[C@@H]3CC[C@]12C [Rd] | > 100 µM | > 7.12 | – | – | – | –
13 | CC(C)=CCC[C@](C)(O[C@@H]1O[C@H](CO)[C@@H](O)[C@H](O)[C@H]1O)[C@H]1CC[C@]2(C)[C@@H]1[C@H](O)C[C@@H]1[C@@]3(C)CC[C@H](O)C(C)(C)[C@@H]3[C@@H](O[C@@H]3O[C@H](CO)[C@@H](O)[C@H](O)[C@H]3O[C@@H]3O[C@@H](C)[C@H](O)[C@@H](O)[C@H]3O)C[C@]12C [Re, ginsenoside Re] | > 100 µM | – | hardly inhibit | > 100 µM | hardly inhibit | –
14 | CC(C)=CCC[C@](C)(O[C@@H]1O[C@H](CO)[C@@H](O)[C@H](O)[C@H]1O)[C@H]1CC[C@]2(C)[C@@H]1[C@H](O)C[C@@H]1[C@@]3(C)CC[C@H](O)C(C)(C)[C@@H]3[C@@H](O[C@@H]3O[C@H](CO)[C@@H](O)[C@H](O)[C@H]3O)C[C@]12C [Rg1, ginsenoside Rg1] | > 100 µM | – | hardly inhibit | > 100 µM | hardly inhibit | –
15 | CC(C)=CCC[C@](C)(O)[C@H]1CC[C@]2(C)[C@@H]1[C@H](O)C[C@@H]1[C@@]3(C)CC[C@H](O)C(C)(C)[C@@H]3[C@@H](O[C@@H]3O[C@H](CO)[C@@H](O)[C@H](O)[C@H]3O[C@@H]3O[C@@H](C)[C@H](O)[C@@H](O)[C@H]3O)C[C@]12C [Rg2, ginsenoside Rg2] | > 100 µM | – | hardly inhibit | > 100 µM | hardly inhibit | –
16 | CC(C)=CCC[C@](C)(O)C1CC[C@]2(C)C1[C@H](O)CC1[C@@]3(C)CC[C@H](O[C@@H]4O[C@H](CO)[C@@H](O)[C@H](O)[C@H]4O[C@@H]4O[C@H](CO)[C@@H](O)[C@H](O)[C@H]4O)C(C)(C)C3CC[C@]12C (stereo partly shown) [Rg3] | > 100 µM | > 9.64 | – | – | – | –
17 | CC(C)=CCC[C@](C)(O)[C@H]1CC[C@]2(C)[C@@H]1[C@H](O)C[C@@H]1[C@@]3(C)CC[C@H](O)C(C)(C)[C@@H]3[C@@H](O[C@@H]3O[C@H](CO)[C@@H](O)[C@H](O)[C@H]3O)C[C@]12C [Rh1, ginsenoside Rh1] | – | – | – | – | – | IC50 (hCES1A): > 100 µM; IC50 (hCES2A): > 100 µM
18 | CC(C)=CC/C=C(\C)[C@H]1CC[C@]2(C)[C@@H]1[C@H](O)C[C@@H]1[C@@]3(C)CC[C@H](O)C(C)(C)[C@@H]3[C@@H](O[C@@H]3O[C@H](CO)[C@@H](O)[C@H](O)[C@H]3O)C[C@]12C [Rh4] | > 100 µM | – | – | – | – | –
19 | CC1(C)CC[C@]2(C(=O)O)CC[C@]3(C)C(=CC[C@@H]4[C@@]5(C)CC[C@H](O)C(C)(C)[C@@H]5CC[C@]43C)[C@@H]2C1 [oleanic acid, reference compound] | 0.1 µM | – | – | – | – | –
